Test results published in PMC3040873, “Design, Synthesis and antiHIV activity of Novel Isatine-Sulphonamides” (Indian Journal of Pharmaceutical Sciences, 2008).

Biological target: T1, HIV-1 integrase (HIV-1 M:B_HXB2R, UniProt P04585)
T1 construct: gene gag-pol; WT integrase, cut from Gag-Pol polyprotein
Assay: ELISA overall integration assay, biotin / digoxigenin labelled oligonucleotides
Assay type: biochemical
Conditions: overall integration reaction; 10 mM MgCl2, 5 mM DTT, 20 mM HEPES pH 7.5, 5% PEG, 15% DMSO, 37 °C, 1 h
From the text: ELISA overall integration assay, biotin / digoxigenin labelled oligonucleotides on HIV-1 integrase

Compound | IC50 ^a (μM/ml)
CC(=O)N1C(=O)C(=Nc2ccc(S(=O)(=O)Nc3nc(C)cc(C)n3)cc2)c2cc(C)ccc21 [SPIII-5Me-AC, 4-(1-acetyl-5-methyl-2-oxoindolin-3-ylideneamino)-N-(4,6-dimethylpyrimidin-2-yl)benzenesulfonamide] | 53.62±11.67
CC(=O)N1C(=O)C(=Nc2ccc(S(=O)(=O)Nc3nc(C)cc(C)n3)cc2)c2cc(Br)ccc21 [SPIII-5Br-AC] | > 250
Cc1cc(C)nc(NS(=O)(=O)c2ccc(N=C3C(=O)N(C(=O)c4ccccc4)c4ccc(Br)cc43)cc2)n1 [SPIII-5Br-BZ] | > 250
